Assay results from ChEMBL document CHEMBL2074275, “Characterization of inducible nature of MRP3 in rat liver” (Am J Physiol Gastrointest Liver Physiol, 2000).

Legend:
Assay type in all cases: functional, organism-based, Sprague-Dawley
[1] = molecular target: T1, ATP-binding cassette sub-family C member 3 (Rattus norvegicus, UniProt O88563); test: (§1) TP_TRANSPORTER: Northern blot in vivo SD rat, liver
[2] = molecular target: T2, Hepatic sodium/bile acid cotransporter (Rattus norvegicus, UniProt P26435); test: as §1
T2 sequence (P26435 whole entry): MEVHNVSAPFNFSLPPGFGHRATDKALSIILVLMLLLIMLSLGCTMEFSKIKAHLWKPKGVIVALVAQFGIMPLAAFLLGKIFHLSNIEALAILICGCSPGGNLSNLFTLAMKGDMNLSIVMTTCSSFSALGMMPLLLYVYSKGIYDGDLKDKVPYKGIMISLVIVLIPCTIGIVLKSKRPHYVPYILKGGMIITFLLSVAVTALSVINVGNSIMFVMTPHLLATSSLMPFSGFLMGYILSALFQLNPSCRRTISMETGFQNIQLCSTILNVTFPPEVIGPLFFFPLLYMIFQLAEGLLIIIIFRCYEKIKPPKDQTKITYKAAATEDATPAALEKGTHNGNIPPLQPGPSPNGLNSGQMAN

[3] = molecular target: ATP-binding cassette sub-family C member 6 (Rattus norvegicus, UniProt O88269); test: as §1
[4] = molecular target: T1, ATP-binding cassette sub-family C member 3; test: TP_TRANSPORTER: Western in vivo SD rat, liver

Measured: Activity

T1 sequence (O88563 whole entry): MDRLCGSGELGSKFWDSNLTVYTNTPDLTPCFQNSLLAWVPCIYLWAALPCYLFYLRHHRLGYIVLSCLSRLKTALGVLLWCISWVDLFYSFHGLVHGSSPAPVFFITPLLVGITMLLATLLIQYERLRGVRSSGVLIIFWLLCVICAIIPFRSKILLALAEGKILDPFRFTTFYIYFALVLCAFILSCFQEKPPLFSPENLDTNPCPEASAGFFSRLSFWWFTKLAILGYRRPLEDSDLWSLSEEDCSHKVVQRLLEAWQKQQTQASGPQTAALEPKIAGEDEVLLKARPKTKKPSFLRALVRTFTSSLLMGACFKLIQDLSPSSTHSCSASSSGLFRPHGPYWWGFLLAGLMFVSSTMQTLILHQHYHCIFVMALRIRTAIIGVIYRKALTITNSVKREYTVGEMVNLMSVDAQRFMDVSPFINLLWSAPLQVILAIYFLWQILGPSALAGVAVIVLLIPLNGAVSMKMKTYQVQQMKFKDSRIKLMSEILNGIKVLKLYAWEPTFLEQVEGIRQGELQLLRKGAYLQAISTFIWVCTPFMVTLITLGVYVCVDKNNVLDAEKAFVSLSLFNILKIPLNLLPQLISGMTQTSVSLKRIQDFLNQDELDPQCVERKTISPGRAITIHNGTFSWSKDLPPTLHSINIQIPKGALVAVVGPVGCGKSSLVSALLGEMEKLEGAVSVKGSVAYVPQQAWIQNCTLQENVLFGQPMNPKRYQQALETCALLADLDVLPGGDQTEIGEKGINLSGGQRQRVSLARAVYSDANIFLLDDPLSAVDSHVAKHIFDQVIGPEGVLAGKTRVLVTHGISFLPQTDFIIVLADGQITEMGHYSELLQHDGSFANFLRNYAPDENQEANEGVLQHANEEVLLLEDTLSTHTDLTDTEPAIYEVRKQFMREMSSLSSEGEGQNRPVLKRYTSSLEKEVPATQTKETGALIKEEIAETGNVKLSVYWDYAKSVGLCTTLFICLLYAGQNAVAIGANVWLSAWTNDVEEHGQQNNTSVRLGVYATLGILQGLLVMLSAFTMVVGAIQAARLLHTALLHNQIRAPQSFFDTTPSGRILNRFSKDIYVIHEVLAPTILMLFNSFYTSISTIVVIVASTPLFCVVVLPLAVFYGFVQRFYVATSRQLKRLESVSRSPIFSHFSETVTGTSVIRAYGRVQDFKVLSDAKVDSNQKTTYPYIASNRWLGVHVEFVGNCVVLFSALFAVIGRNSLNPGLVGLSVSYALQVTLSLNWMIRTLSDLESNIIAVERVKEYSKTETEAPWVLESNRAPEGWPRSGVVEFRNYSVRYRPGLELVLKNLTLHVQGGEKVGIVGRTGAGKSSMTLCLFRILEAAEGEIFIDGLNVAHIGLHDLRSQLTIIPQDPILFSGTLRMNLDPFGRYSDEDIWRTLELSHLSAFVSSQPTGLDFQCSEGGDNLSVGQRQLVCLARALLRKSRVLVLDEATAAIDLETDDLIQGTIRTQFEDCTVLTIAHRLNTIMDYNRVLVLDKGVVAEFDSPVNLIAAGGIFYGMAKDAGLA
Chain of ATP-binding cassette sub-family C member 6 (O88269 whole entry): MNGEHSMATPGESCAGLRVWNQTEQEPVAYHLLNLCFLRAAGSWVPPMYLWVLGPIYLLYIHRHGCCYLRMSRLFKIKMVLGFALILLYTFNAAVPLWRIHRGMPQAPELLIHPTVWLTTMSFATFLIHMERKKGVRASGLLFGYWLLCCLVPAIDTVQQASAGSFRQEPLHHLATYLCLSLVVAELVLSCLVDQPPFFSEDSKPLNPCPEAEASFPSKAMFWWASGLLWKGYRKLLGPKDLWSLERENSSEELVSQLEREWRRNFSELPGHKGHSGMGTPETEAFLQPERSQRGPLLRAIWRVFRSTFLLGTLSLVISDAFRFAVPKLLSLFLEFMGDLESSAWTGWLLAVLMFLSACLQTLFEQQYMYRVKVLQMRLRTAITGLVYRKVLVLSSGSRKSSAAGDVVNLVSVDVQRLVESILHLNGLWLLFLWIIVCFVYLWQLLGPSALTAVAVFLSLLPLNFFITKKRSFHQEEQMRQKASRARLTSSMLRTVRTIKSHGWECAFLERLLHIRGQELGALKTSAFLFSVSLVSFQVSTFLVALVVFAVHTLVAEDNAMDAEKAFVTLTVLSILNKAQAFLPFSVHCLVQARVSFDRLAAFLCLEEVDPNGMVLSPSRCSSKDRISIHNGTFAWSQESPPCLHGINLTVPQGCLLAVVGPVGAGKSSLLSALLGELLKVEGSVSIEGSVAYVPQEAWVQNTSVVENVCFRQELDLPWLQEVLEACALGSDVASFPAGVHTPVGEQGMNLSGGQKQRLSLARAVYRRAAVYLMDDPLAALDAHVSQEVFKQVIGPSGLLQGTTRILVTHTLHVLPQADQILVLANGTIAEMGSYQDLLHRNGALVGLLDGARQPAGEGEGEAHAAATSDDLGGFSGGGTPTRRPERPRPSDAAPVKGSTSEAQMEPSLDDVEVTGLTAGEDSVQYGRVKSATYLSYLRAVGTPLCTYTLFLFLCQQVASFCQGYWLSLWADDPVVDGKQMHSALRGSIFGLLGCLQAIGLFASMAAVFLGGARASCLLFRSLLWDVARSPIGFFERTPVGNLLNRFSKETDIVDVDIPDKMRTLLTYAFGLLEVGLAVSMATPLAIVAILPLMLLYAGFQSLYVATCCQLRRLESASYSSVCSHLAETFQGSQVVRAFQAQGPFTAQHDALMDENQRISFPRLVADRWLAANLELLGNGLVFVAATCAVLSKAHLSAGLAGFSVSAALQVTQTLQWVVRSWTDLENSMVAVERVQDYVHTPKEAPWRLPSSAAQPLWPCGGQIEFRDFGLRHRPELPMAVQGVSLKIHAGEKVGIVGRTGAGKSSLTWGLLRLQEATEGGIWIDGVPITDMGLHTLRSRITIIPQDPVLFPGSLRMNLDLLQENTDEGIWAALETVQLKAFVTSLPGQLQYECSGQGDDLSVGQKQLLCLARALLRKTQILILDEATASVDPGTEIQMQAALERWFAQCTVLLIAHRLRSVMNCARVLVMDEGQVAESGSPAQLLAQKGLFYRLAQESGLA

CCC1(c2ccccc2)C(=O)NC(=O)NC1=O [PHENOBARBITAL]
inducer [+]: [1] | [2] | [3] | [4]

O=C=Nc1cccc2ccccc12 [alpha-naphthylisocyanate]
inducer [+]: [1] | [2] | [3] | [4]
